Source: ChEMBL document CHEMBL3352419, “Antiprotozoal activity of 8-acyl and 8-alkyl incomptine A analogs” (Bioorg Med Chem Lett, 2014)
In brackets after ≈: the same amount, converted by molar mass.

Key:
Giardia intestinalis = assay: Antiprotozoal activity against Giardia lamblia IMSS: 8909:1 trophozoites assessed as growth inhibition compound treated for 48 hrs measured 48 hrs post wash-out by MTT assay; type: functional, organism-based; conditions: Giardia duodenalis, IMSS: 8909:1, 48 h
Entamoeba histolytica = assay: Antiprotozoal activity against Entamoeba histolytica HM-1:IMSS trophozoites assessed as growth inhibition compound treated for 48 hrs measured 48 hrs post wash-out by MTT assay; type: functional, organism-based

Question: Which results are given for `C=C1C(=O)O[C@H]2/C=C(C)\C=C/[C@H]3O[C@]3(C)C[C@@H](OC(C)=O)[C@@H]12`?
Answer: IC50 (Giardia intestinalis): 18.1 µg/mL (≈ 59.5 µM); IC50 (Entamoeba histolytica): 2.6 µg/mL (≈ 8.54 µM)

Question: How did the IC50 (Giardia intestinalis) turn out when `C=C1C(=O)O[C@H]2/C=C(C)\C=C/[C@H]3O[C@]3(C)C[C@@H](O)[C@@H]12` was run?
Answer: The IC50 was 257 µg/mL (≈ 979 µM).

Question: And the IC50 (Entamoeba histolytica)?
Answer: Its IC50 is 138 µg/mL (≈ 525 µM).

Question: `C=C1C(=O)O[C@H]2/C=C(C)\C=C/[C@H]3O[C@]3(C)C[C@@H](OC(=O)C(F)(F)F)[C@@H]12` was tested. Which IC50 (Giardia intestinalis) did it give?
Answer: Its IC50 is 43.3 µg/mL (≈ 121 µM).

Question: And the IC50 (Entamoeba histolytica)?
Answer: The IC50 was 37.7 µg/mL (≈ 105 µM).

Question: How did the IC50 (Giardia intestinalis) turn out when `C=C1C(=O)O[C@H]2/C=C(C)\C=C/[C@H]3O[C@]3(C)C[C@@H](OC(=O)CC)[C@@H]12` was run?
Answer: Its IC50 is 68.8 µg/mL (≈ 216 µM).

Question: What about the IC50 (Entamoeba histolytica) of the same compound?
Answer: Its IC50 is 51.6 µg/mL (≈ 162 µM).

Question: Which results are given for `C=C1C(=O)O[C@H]2/C=C(C)\C=C/[C@H]3O[C@]3(C)C[C@@H](OC(=O)CCC)[C@@H]12`?
Answer: IC50 (Giardia intestinalis): 51.7 µg/mL (≈ 156 µM); IC50 (Entamoeba histolytica): 49.1 µg/mL (≈ 148 µM)

Question: Which IC50 (Giardia intestinalis) does the source give for `C=C1C(=O)O[C@H]2/C=C(C)\C=C/[C@H]3O[C@]3(C)C[C@@H](OC(=O)C(C)C)[C@@H]12` here?
Answer: Its IC50 is 62.2 µg/mL (≈ 187 µM).

Question: What about the IC50 (Entamoeba histolytica) of the same compound?
Answer: Its IC50 is 52.7 µg/mL (≈ 159 µM).

Question: Which results are given for `C=C1C(=O)O[C@H]2/C=C(C)\C=C/[C@H]3O[C@]3(C)C[C@@H](OC(=O)CCCC)[C@@H]12`?
Answer: IC50 (Giardia intestinalis): 58.3 µg/mL (≈ 168 µM); IC50 (Entamoeba histolytica): 51.7 µg/mL (≈ 149 µM)

Question: Which IC50 (Giardia intestinalis) does the source give for `C=C(C)C(=O)O[C@@H]1C[C@@]2(C)O[C@@H]2/C=C\C(C)=C/[C@@H]2OC(=O)C(=C)[C@@H]21` here?
Answer: The IC50 was 44.2 µg/mL (≈ 134 µM).

Question: What about the IC50 (Entamoeba histolytica) of the same compound?
Answer: The IC50 was 32.7 µg/mL (≈ 99 µM).

Question: How did the IC50 (Giardia intestinalis) turn out when `C=C1C(=O)O[C@H]2/C=C(C)\C=C/[C@H]3O[C@]3(C)C[C@@H](OC)[C@@H]12` was run?
Answer: The IC50 was 35.2 µg/mL (≈ 127 µM).

Question: What about the IC50 (Entamoeba histolytica) of the same compound?
Answer: The IC50 was 29.4 µg/mL (≈ 106 µM).

Question: What does the source list for `C=C1C(=O)O[C@H]2/C=C(C)\C=C/[C@H]3O[C@]3(C)C[C@@H](OCC)[C@@H]12`?
Answer: IC50 (Giardia intestinalis): 43.8 µg/mL (≈ 151 µM); IC50 (Entamoeba histolytica): 31.9 µg/mL (≈ 110 µM)

Question: For `C=C1C(=O)O[C@H]2/C=C(C)\C=C/[C@H]3O[C@]3(C)C[C@@H](OCCC)[C@@H]12`, which IC50 (Giardia intestinalis) is on record?
Answer: The IC50 was 31.2 µg/mL (≈ 103 µM).

Question: What about the IC50 (Entamoeba histolytica) of the same compound?
Answer: The IC50 was 35.9 µg/mL (≈ 118 µM).

Question: For `C=C1C(=O)O[C@H]2/C=C(C)\C=C/[C@H]3O[C@]3(C)C[C@@H](OC(C)C)[C@@H]12`, which IC50 (Giardia intestinalis) is on record?
Answer: The IC50 was 32.7 µg/mL (≈ 107 µM).

Question: And the IC50 (Entamoeba histolytica)?
Answer: Its IC50 is 28.7 µg/mL (≈ 94.3 µM).

Question: For `C=C1C(=O)O[C@H]2/C=C(C)\C=C/[C@H]3O[C@]3(C)CC(=O)[C@@H]12`, which IC50 (Giardia intestinalis) is on record?
Answer: Its IC50 is 30.6 µg/mL (≈ 118 µM).

Question: What about the IC50 (Entamoeba histolytica) of the same compound?
Answer: Its IC50 is 34.9 µg/mL (≈ 134 µM).
